11 molecules from ChEMBL document CHEMBL1201862, “PubChem BioAssay data set” (2004) can be followed below.

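Protocol summary: plate cells (96-well), add compound at 5 concentrations, incubate 48 h, interpolate endpoints linearly. Abbreviation: GI50, concentration required for 50% inhibition of growth.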 Active and inactive are the calls of the source. Cut-off read from the data, not from the text of the source: active = GI50 up to about 1.1 µM and inactive = higher. Bounds are passed on as bounds.

What all share (assay): growth of human tumour cells (NCI), 48 h
Experiment [1] deals with IGROV-1.
For experiment [2], the system named is SK-MEL-28.
The test system of experiment [3] is 786-0.
In experiment [4] the test system is LOX IMVI.
Experiment [5] has as its system KM-20L2.
Experiment [6] concerns SW-620.
Experiment [7] concerns RPMI-8226.
For experiment [8], the system named is MOLT-4.
Experiment [9] concerns UACC-257.
The test system of experiment [10] is HOP-62.
Experiment [11] deals with U-251.
For experiment [12], the system named is SK-MEL-2.
Experiment [13] deals with KM12.
In experiment [14] the test system is HCT-116.
Experiment [15] concerns A549.
For experiment [16], the system named is NCI-H522.
Experiment [17] deals with HT-29.
Experiment [18] deals with HCT-15.
Experiment [19] concerns A498.
The test system of experiment [20] is MDA-MB-435.

Consider `COc1ccc2nc(NC(=O)C(=O)C(C#N)c3ccc([N+](=O)[O-])cc3)sc2c1` (stereo not given), for which the GI50 in experiment [1], in experiment [2], in experiment [3], in experiment [4], in experiment [5] and in [6] was > 100 µM (inactive) in each case. For the same molecule, the GI50 was 31.2 µM (inactive) in experiment [7]; 38.3 µM (inactive) in experiment [8]; > 100 µM (inactive) in experiment [9]; > 100 µM (inactive) in experiment [10]; > 100 µM (inactive) in experiment [11]; > 100 µM (inactive) in experiment [12]. Besides, the GI50 in [13] is > 100 µM (inactive); in experiment [14], > 100 µM (inactive); in experiment [15], > 100 µM (inactive); in experiment [16], 55.5 µM (inactive); in experiment [17], > 100 µM (inactive); in experiment [18], above 100 µM.
As for `NCCCCNc1ccc2c(=O)[nH][nH]c(=O)c2c1`, the GI50 in experiment [1], in [2], in [3], in experiment [4], in experiment [5] and in [6] was > 100 µM (inactive) in each case. Moreover, the GI50 in experiment [8], in experiment [9], in experiment [10], in [19], in experiment [11] and in [12] was > 100 µM (inactive) each time. Further, the GI50 in experiment [13], in experiment [14], in experiment [15], in [16] and in [17] was > 100 µM (inactive) in each case.
Take `CC(=O)Nc1ccc2c3c(cc(O)c2c1)N(C(=O)CCCC(=O)Nc1ccc2c4c(cc(O)c2c1)N(C(=O)OC(C)(C)C)CC4CCl)CC3CCl` (stereo not given): the GI50 in experiment [1] is 1.05 µM (active); in experiment [2], 1.91 µM (inactive); in [3], 1.23 µM (inactive); in experiment [4], 0.904 µM (active); in experiment [6] it was 1.82 µM (inactive); in [7], 5.69 µM (inactive). The GI50 in [8] is 0.0815 µM (active); in [9], 1.04 µM (active); in experiment [20] it was 0.938 µM (active); in experiment [10] it was 2.01 µM (inactive); in [19], 1.02 µM (active); in experiment [11], 0.841 µM (active). The GI50 was 0.955 µM (active) in [12]; 2.26 µM (inactive) in experiment [13]; 0.851 µM (active) in experiment [14]; 9.4 µM (inactive) in [15]; 0.371 µM (active) in experiment [16]; 1.19 µM (inactive) in [17]. Besides, the GI50 in experiment [18] is above 50 µM.
Consider `O=C1c2scc(-c3ccccc3)c2-n2cccc21`, for which the GI50 is 2.59 µM (inactive) in [1]; 15.2 µM (inactive) in experiment [2]; 13.9 µM (inactive) in [3]; 14.4 µM (inactive) in experiment [4]; 16.3 µM (inactive) in experiment [6]; 5 µM (inactive) in experiment [7]. Also, the GI50 in experiment [8] was 13.4 µM (inactive); in experiment [9], 30.1 µM (inactive); in [20] it was 14.5 µM (inactive); in experiment [10], 16.3 µM (inactive); in experiment [19], 1.72 µM (inactive); in experiment [11], 14.1 µM (inactive). The GI50 in experiment [12] was 12.2 µM (inactive); in experiment [13], 13.6 µM (inactive); in [14] it was 13.4 µM (inactive); in [15], 18.5 µM (inactive); in [16], 11.4 µM (inactive); in experiment [17], 10.9 µM (inactive). For the same molecule, the GI50 in experiment [18] is 34.1 µM.
For `CCOC(C[C@H](O[Si](C)(C)C(C)(C)C)[C@H]1COC(=S)S1)OCC`, the GI50 in experiment [2] is > 100 µM (inactive); in [3], > 100 µM (inactive); in experiment [4], 52.6 µM (inactive); in experiment [5], 41.4 µM (inactive); in experiment [6], 62.7 µM (inactive); in experiment [7], 32.1 µM (inactive). Further, the GI50 in [8] is 34.7 µM (inactive); in experiment [9], 35 µM (inactive); in experiment [10] it was 43.6 µM (inactive); in experiment [11], 40.7 µM (inactive); in experiment [13], 50.7 µM (inactive); in experiment [14], 39.2 µM (inactive). The GI50 in experiment [15] is 70.5 µM (inactive); in experiment [16], 23.3 µM (inactive); in experiment [17], 14.5 µM (inactive); in [18] it was 55.1 µM.
Turning to `O=C(CCc1cc(O)cc(O)c1)NCCc1ccc(O)c(O)c1`, the GI50 in experiment [1], in experiment [2], in experiment [3], in experiment [4], in experiment [6] and in experiment [7] was > 100 µM (inactive) throughout. The GI50 in experiment [8] is > 100 µM (inactive); in experiment [9], > 100 µM (inactive); in [20], 21.6 µM (inactive); in experiment [10], > 100 µM (inactive); in experiment [19], > 100 µM (inactive); in experiment [11], > 100 µM (inactive). Moreover, the GI50 in experiment [12], in [13], in experiment [14], in experiment [15], in experiment [16] and in experiment [17] was > 100 µM (inactive) in each case. This molecule also came in with a GI50 in experiment [18] above 100 µM.
As to `OCC(O)COCn1cc(Cn2ncc3c(SCc4ccccc4)ncnc32)nn1` (stereo not given), the GI50 in experiment [1], in experiment [2], in experiment [3], in [4], in experiment [6] and in experiment [7] was > 100 µM (inactive) throughout. The GI50 in [8], in experiment [9], in experiment [20], in experiment [10], in [19] and in [11] was > 100 µM (inactive) throughout. Further, the GI50 in experiment [12] is > 100 µM (inactive); in [13], > 100 µM (inactive); in experiment [14] it was > 100 µM (inactive); in [15], > 100 µM (inactive); in experiment [16], 27.2 µM (inactive); in experiment [17] it was > 100 µM (inactive). Moreover, the GI50 in [18] was above 100 µM.
With `COCCc1c(C)c(C#N)c2n(C)c3ccccc3n2c1=O`, the GI50 in experiment [1], in experiment [2], in experiment [3], in experiment [4], in experiment [6] and in [7] was > 10 µM (inactive) each time. In addition, the GI50 in experiment [8], in experiment [9], in [20], in experiment [10], in [19] and in experiment [11] was > 10 µM (inactive) each time. In addition, the GI50 in [12], in [13], in experiment [14], in experiment [15], in experiment [16] and in [17] was > 10 µM (inactive) in each case. Moreover, the GI50 in [18] is above 10 µM.
For the molecule `Cc1c2cc[n+](C)cc2c(C)c2c1[nH]c1ccc(Oc3ccccc3)cc12`, the GI50 was 2.37 µM (inactive) in experiment [1]; 2.89 µM (inactive) in [2]; 0.518 µM (active) in [3]; 1.61 µM (inactive) in experiment [4]; 0.927 µM (active) in experiment [5]; 0.537 µM (active) in [6]. Besides, the GI50 in [7] is 2.64 µM (inactive); in [8], 1.69 µM (inactive); in experiment [9] it was 1.28 µM (inactive); in experiment [10], 0.518 µM (active); in experiment [11], 0.236 µM (active); in experiment [12] it was 0.832 µM (active). Also, the GI50 is 0.736 µM (active) in experiment [13]; 1.29 µM (inactive) in experiment [14]; 0.272 µM (active) in experiment [15]; 0.843 µM (active) in experiment [17]; 4.69 µM in [18].
On to `C[N+]1(CCC(=O)c2ccccc2)CCC2CCC(C2)C1` (stereo not given), for which the GI50 in [1], in [2], in [3], in experiment [4], in [6] and in experiment [7] was > 100 µM (inactive) throughout. Further, the GI50 in [8], in [9], in [20], in experiment [10], in experiment [19] and in experiment [11] was > 100 µM (inactive) throughout. For the same molecule, the GI50 in [12], in [13], in [14], in experiment [15], in experiment [16] and in experiment [17] was > 100 µM (inactive) throughout. The molecule further gave a GI50 in experiment [18] above 100 µM.
In the case of `CSCCOC(=O)C(=[N+]=[N-])c1ccc([N+](=O)[O-])cc1`, the GI50 in [1], in [2], in [3], in experiment [4], in [5] and in experiment [6] was > 100 µM (inactive) each time. Moreover, the GI50 in experiment [7], in experiment [8], in [9], in experiment [10], in experiment [11] and in [12] was > 100 µM (inactive) throughout. Further, the GI50 was > 100 µM (inactive) in experiment [13]; > 100 µM (inactive) in experiment [14]; > 100 µM (inactive) in [15]; > 100 µM (inactive) in experiment [16]; > 100 µM (inactive) in experiment [17]; above 100 µM in experiment [18].
